# From US12601000B2, “Method for the hydroxylation of steroids” (ANNIKKI GMBH, priority 2020, dated 2026)
# Where two headings read alike, the source gives them in different places.
# Legend:
# [1] = Solubility limits of LCA and UDCA in organic solvents; assay type: physicochemical; settings: organic solvent, organic solvent or mixture, thermodynamic from solid, read-out: solubility limit
# Method: The organic solvent was added in increments of 100 μL, and the mixture was treated by shaking in a vortex shaker and optionally in an ultrasonic bath. It was visually assessed as to whether a clear solution was present.
# [2] = test system: Asanoa ferruginea (DSM-44099); assay: Test of bacterial strains for 7-hydroxylation of deoxycholic acid; assay type: cell-based; settings: deoxycholic acid 0.5 mM, cultured up to 72 h, HPLC and GC/MS
# From the text: (§1) The following bacterial strains were obtained from the German Strain Collection of Microorganisms and Cell Cultures (DSMZ [Deutsche Stammsammlung für Mikroorganismen und Zellkulturen]): Saccharothrix longispora (DSM-43749), Catellatospora citrae (DSM-44097), Streptomyces hygroscopicus subsp. hygroscopicus (DSM-40578) and Asanoa ferruginea (DSM-44099). The strains were cultivated under standard conditions as recommended by DSMZ. […] After a centrifugation step, supernatants of the cultures were extracted with ethyl acetate and analyzed by HPLC and GC/MS.
# [3] = test system: Catellatospora citrae (DSM-44097); assay: as above; assay type: cell-based; settings: deoxycholic acid 0.5 mM, cultured up to 72 h, HPLC and GC/MS
# From the text: as §1
# [4] = test system: Saccharothrix longispora (DSM-43749); assay: as above; assay type: cell-based; settings: deoxycholic acid 0.5 mM, cultured up to 72 h, HPLC and GC/MS
# From the text: as §1
# [5] = test system: Streptomyces hygroscopicus subsp. hygroscopicus (DSM-40578); assay: as above; assay type: cell-based; settings: deoxycholic acid 0.5 mM, cultured up to 72 h, HPLC and GC/MS
# From the text: as §1
smiles,measurement,setting,value
"C[C@H](CCC(=O)O)[C@H]1CC[C@H]2[C@@H]3[C@@H](O)C[C@@H]4C[C@H](O)CC[C@]4(C)[C@H]3CC[C@]12C [UDCA, ursodeoxycholic acid]",solubility,[1]; 2-butanol,53 mg/mL
same,solubility,[1]; 2-butanone,10 mg/mL
same,solubility,[1]; CH2Cl2,1.1 mg/mL
same,solubility,[1]; CHCl3/phenol,21.3 mg/mL
same,solubility,[1]; CHCl3,2.9 mg/mL
same,solubility,[1]; DMA,> 500 mg/mL
same,solubility,[1]; DMF,> 500 mg/mL
same,solubility,[1]; DMSO,> 500 mg/mL
same,solubility,[1]; Et2O,2 mg/mL
same,solubility,[1]; Me—THF,63.4 mg/mL
same,solubility,[1]; THF,259 mg/mL
same,solubility,[1]; acetone,8.8 mg/mL
same,solubility,[1]; cyclohexane,< 0.7 mg/mL
same,solubility,[1]; dioxane,92.6 mg/mL
same,solubility,[1]; ethanol,54.5 mg/mL
same,solubility,[1]; ethyl acetate (EtOAc),2.9 mg/mL
same,solubility,[1]; ethylene glycol,16.6 mg/mL
same,solubility,[1]; hexane/EtOAc + 0.01% trifluoroacetic acid (TFA),< 0.8 mg/mL
same,solubility,[1]; hexane/IPA 7:3 + 0.02% TFA,12 mg/mL
same,solubility,[1]; hexane/IPA 8:2 + 0.01% TFA,4 mg/mL
same,solubility,[1]; i Pr2O,< 0.5 mg/mL
same,solubility,[1]; isopropanol (IPA),47.5 mg/mL
same,solubility,[1]; methanol,> 100 mg/mL
same,solubility,[1]; methyl isobutyl alcohol (MIBA),35.7 mg/mL
same,solubility,[1]; methyl isobutyl ketone (MIBK),4.4 mg/mL
same,solubility,[1]; toluene,< 1 mg/mL
"C[C@H](CCC(=O)O)[C@H]1CC[C@H]2[C@@H]3CC[C@@H]4C[C@H](O)CC[C@]4(C)[C@H]3C[C@H](O)[C@]12C [deoxycholic acid, 3α,12α-dihydroxy-5β-cholanic acid]",7-hydroxylated product of deoxycholic acid in culture supernatant,[2],no indication of 7-hydroxylated products
same,7-hydroxylated product of deoxycholic acid in culture supernatant,[3],no indication of 7-hydroxylated products
same,7-hydroxylated product of deoxycholic acid in culture supernatant,[4],no indication of 7-hydroxylated products
same,7-hydroxylated product of deoxycholic acid in culture supernatant,[5],a peak was noted the retention time of which corresponds to that of ursocholic acid
